A short description of assay [1]: Tail Withdrawal Test in Rats (undesired central effects). The format is in vivo. As to conditions: Rattus norvegicus, oral, tail in 55° C. water, suppression of withdrawal response exceeding 10 seconds in 50% of animals, fasted male Wistar rats. How it is done: Male Wistar rats were fasted overnight. Each animal was treated orally with a dose level of the compound to be tested. The thus treated rats Were put into individual restraining cages. At various time periods after administration, the lower 5 cm portion of the tail was immersed into a cup filled with water at a constant temperature of 55° C. The typical tail withdrawal response was evaluated during a 10 seconds period after the immersion. ED50 values in mg/kg body weight were determined as that dose of the test compound capable of suppressing in 50% of the tested animals the typical tail withdrawal response during a time period exceeding 10 seconds. Said ED50 values obtained for the compounds of the present invention are gathered in Table 1 column two.

A short description of assay [2]: Ricinus Oil Test in Rats (antidiarrheal activity). As to conditions: compound 1 hour before 1 ml ricinus oil orally, no diarrhea in 50% of animals 1 hour after ricinus oil, fasted female Wistar rats; for ED50: Rattus norvegicus, po, 1 h. It is filed as in vivo. From the text:
The use of the compounds of formula (I), their N-oxide forms, pharmaceutically acceptable acid-addition salts and stereoisomeric forms thereof in the method of the present invention is based on their useful antidiarrheal activity. This property is clearly evidenced by the experimental data obtained in, for example, the "Ricinus oil Test in Rats". […] By virtue of their useful antidiarrheal activity, it is evident that the compounds of formula (I), their N-oxide forms, pharmaceutically acceptable acid addition salts and stereoisomeric forms can be used in the treatment of diarrhea.
Female Wistar rats were fasted overnight. Each animal was treated orally with a dose level of the compound to be tested. One hour thereafter, the animal received 1 ml of ricinus oil orally. Each animal was kept in an individual cage and 1 hour after the ricinus oil treatment, the presence or absence of diarrhea was noted. The ED50 value was determined as that dose in mg/kg body weight, at which no diarrhea was present in 50% of the tested animals. Said ED50 -values for the compounds of the present invention can be found in the first column of Table 1.

In the case of `CC(CC(C(=O)N(C)C)(c1ccccc1)c1ccccc1)N1CC[C@@H](NC(=O)c2cccc(C(F)(F)F)c2)[C@H](O)C1` (relative stereo) [Compound 1, trans-3-hydroxy-N,N,γ-trimethyl-α,α-diphenyl-4-[[3-(trifluoromethyl)benzoyl]amino]-1-piperidinebutanamide], the results for the ED50 in assay [1] and in assay [2] were more than 160 mg/kg and 0.15 mg/kg, respectively.

Consider `CC(CC(C(=O)N(C)C)(c1ccccc1)c1ccccc1)N1CC[C@@H](NC(=O)c2ccc(Cl)c(Cl)c2)[C@H](O)C1` (relative stereo) [Compound 2], for which the results for the ED50 in assay [1] and in assay [2] were more than 160 mg/kg and 0.63 mg/kg, respectively.

As for `CC(CC(C(=O)N(C)C)(c1ccccc1)c1ccccc1)N1CC[C@@H](NC(=O)c2c(Cl)cccc2Cl)[C@H](O)C1` (relative stereo) [Compound 5], the results for the ED50 in assay [1] and in assay [2] were not below 40 mg/kg and 0.31 mg/kg, respectively.

In the case of `CC(CC(C(=O)N(C)C)(c1ccccc1)c1ccccc1)N1CC[C@@H](NC(=O)c2cc(Cl)cc(Cl)c2)[C@H](O)C1` (relative stereo) [Compound 7], the figures for the ED50 in assay [1] and in assay [2] were more than 40 mg/kg and 0.31 mg/kg, respectively.

`CC(CC(C(=O)N(C)C)(c1ccccc1)c1ccccc1)N1CC[C@@H](NC(=O)c2cccc(Cl)c2)[C@H](O)C1` (relative stereo) [Compound 10]: the ED50 in assay [1] is more than 40 mg/kg; in assay [2] it was 0.04 mg/kg.

Turning to `CC(CC(C(=O)N(C)C)(c1ccccc1)c1ccccc1)N1CC[C@@H](NC(=O)c2cccc(Cl)c2[N+](=O)[O-])[C@H](O)C1` (relative stereo) [Compound 17], the figures for the ED50 in assay [1] and in assay [2] were more than 40 mg/kg and 0.63 mg/kg, respectively.

Turning to `CC(CC(C(=O)N(C)C)(c1ccccc1)c1ccccc1)N1CC[C@@H](NC(=O)c2ccc(F)cc2[N+](=O)[O-])[C@H](O)C1` (relative stereo) [Compound 19], the figures for the ED50 in assay [1] and in assay [2] were more than 40 mg/kg and 1.25 mg/kg, respectively.

Consider `Cc1ccc([N+](=O)[O-])c(C(=O)N[C@@H]2CCN(C(C)CC(C(=O)N(C)C)(c3ccccc3)c3ccccc3)C[C@H]2O)c1` (relative stereo) [Compound 21], for which the ED50 was more than 40 mg/kg in assay [1] and not above 0.63 mg/kg in assay [2].

In the case of `CC(CC(C(=O)N(C)C)(c1ccccc1)c1ccccc1)N1CC[C@@H](NC(=O)c2ccccc2OCc2ccccc2)[C@H](O)C1` (relative stereo) [Compound 29, trans-3-hydroxy-N,N,γ-trimethyl-α,α-diphenyl-4-[[2-(phenylmethoxy)benzoyl]amino]-1-piperidinebutanamide], the ED50 in assay [1] is approximately 40 mg/kg; in assay [2], not above 0.63 mg/kg.

Consider `COc1cc(Cl)ccc1C(=O)N[C@@H]1CCN(C(C)CC(C(=O)N(C)C)(c2ccccc2)c2ccccc2)C[C@H]1O` (relative stereo) [Compound 30], for which the ED50 is not below 40 mg/kg in assay [1] and 0.63 mg/kg in assay [2].

Turning to `COc1c(Cl)cc(Cl)cc1C(=O)N[C@@H]1CCN(C(C)CC(C(=O)N(C)C)(c2ccccc2)c2ccccc2)C[C@H]1O` (relative stereo) [Compound 31], the ED50 in assay [1] is approximately 40 mg/kg; in assay [2], 0.63 mg/kg.

As to `CCCC(=O)c1ccc(OC)c(C(=O)N[C@@H]2CCN(C(C)CC(C(=O)N(C)C)(c3ccccc3)c3ccccc3)C[C@H]2O)c1` (relative stereo) [Compound 34], the ED50 was more than 40 mg/kg in assay [1] and less than 2.5 mg/kg in assay [2].

Consider `CC(CC(C(=O)N(C)C)(c1ccccc1)c1ccccc1)N1CC[C@@H](NC(=O)c2cccc([N+](=O)[O-])c2Br)[C@H](O)C1` (relative stereo) [Compound 38], for which the ED50 in assay [1] is more than 40 mg/kg; in assay [2], 2.5 mg/kg.

On to `CC(CC(C(=O)N(C)C)(c1ccccc1)c1ccccc1)N1CC[C@@H](NC(=O)c2cc(Cl)ccc2N)[C@H](O)C1` (relative stereo) [Compound 47, trans-4-[(2-amino-5-chlorobenzoyl)amino]-3-hydroxy-N,N,γ-trimethyl-α,α-diphenyl-1-piperidinebutanamide], for which the 50% effective dose (ED50) was approximately 40 mg/kg in assay [1] and 0.08 mg/kg in assay [2].

`COc1cc(N)c(Cl)cc1C(=O)N[C@@H]1CCN(C(C)CC(C(=O)N(C)C)(c2ccccc2)c2ccccc2)C[C@H]1O` (relative stereo) [Compound 50, trans-4-[(4-amino-5-chloro-2-methoxybenzoyl)amino]-3-hydroxy-N,N,γ-trimethyl-α,α-diphenyl-1-piperidinebutanamide]: the ED50 was more than 40 mg/kg in assay [1] and 2.5 mg/kg in assay [2].

Regarding `CO[C@@H]1CN(C(C)CC(C(=O)N(C)C)(c2ccccc2)c2ccccc2)CC[C@H]1NC(=O)c1cccc(C(F)(F)F)c1` (relative stereo) [Compound 52, trans-3-methoxy-N,N,γ-trimethyl-α,α-diphenyl-4-[[3-(trifluoromethyl)benzoyl]amino]-1-piperidinebutanamide], the ED50 was 40 mg/kg in assay [1] and 2.5 mg/kg in assay [2].

Take `COc1cc(N)c(Cl)cc1C(=O)N[C@@H]1CCN(C(C)CC(C(=O)N(C)C)(c2ccccc2)c2ccccc2)C[C@H]1OC` (relative stereo) [Compound 53, trans-4-[(4-amino-5-chloro-2-methoxybenzoyl)amino]-3-methoxy-N,N,γ-trimethyl-α,α-diphenyl-1-piperidinebutanamide]: the ED50 in assay [1] was approximately 40 mg/kg; in assay [2], 2.5 mg/kg.

Turning to `COc1cc(NC(C)=O)c(Cl)cc1C(=O)N[C@@H]1CCN(C(C)CC(C(=O)N(C)C)(c2ccccc2)c2ccccc2)C[C@H]1O` (relative stereo) [Compound 64, trans-4-[[4-(acetylamino)-5-chloro-2-methoxybenzoyl]amino]-3-hydroxy-N,N,γ-trimethyl-α,α-diphenyl-1-piperidinebutanamide], the ED50 in assay [1] was more than 40 mg/kg; in assay [2] it was 2.5 mg/kg.

Regarding `CC(CC(C(=O)N(C)C)(c1ccccc1)c1ccccc1)N1CC[C@@H](NC(=O)c2ccc(F)cc2N)[C@H](O)C1.O` (relative stereo) [Compound 67, trans-4-[(2-amino-4-fluorobenzoyl)amino]-3-hydroxy-N,N,γ-trimethyl-α,α-diphenyl-1piperidinebutanamide monohydrate], the ED50 in assay [1] is more than 40 mg/kg; in assay [2], less than 0.04 mg/kg.

In the case of `CC(CC(C(=O)N(C)C)(c1ccccc1)c1ccccc1)N1CC[C@@H](NC(=O)c2cccc(N)c2O)[C@H](O)C1` (relative stereo) [Compound 68, trans-4-[(3-amino-2-hydroxybenzoyl)amino]-3-hydroxy-N,N,γ-trimethyI-α,α-diphenyl-1-piperidinebutanamide], the ED50 in assay [1] was more than 40 mg/kg; in assay [2], 0.63 mg/kg.

For `CC(CC(C(=O)N(C)C)(c1ccccc1)c1ccccc1)N1CC[C@@H](NC(=O)c2cccc(Cl)c2N)[C@H](O)C1` (relative stereo) [Compound 69, trans-4-[(2-amino-3-chlorobenzoyl)amino]-3-hydroxy-N,N,γ-trimethyl-α,α-diphenyl-1-piperidinebutanamide], the results for the ED50 in assay [1] and in assay [2] were more than 40 mg/kg and less than 0.63 mg/kg, respectively.

Turning to `CC(CC(C(=O)N(C)C)(c1ccccc1)c1ccccc1)N1CC[C@@H](NC(=O)c2ccc(Cl)cc2N)[C@H](O)C1` (relative stereo) [Compound 70, trans-4-[(2-amino-4-chlorobenzoyl)amino]-3-hydroxy-N,N,γ-trimethyl-α,α-diphenyl 1-piperidinebutanamide monohydrate], the ED50 is more than 40 mg/kg in assay [1] and less than 0.63 mg/kg in assay [2].

In the case of `COc1cc(N)ccc1C(=O)N[C@@H]1CCN(C(C)CC(C(=O)N(C)C)(c2ccccc2)c2ccccc2)C[C@H]1O` (relative stereo) [Compound 75, trans-4[(4-amino-2-methoxybenzoyl)amino]-3-hydroxy-N,N,γ-trimethyl-α,α-diphenyl-1-piperidinebutanamide], the ED50 in assay [1] is more than 40 mg/kg; in assay [2], 2.5 mg/kg.

As for `CC(CC(C(=O)N(C)C)(c1ccccc1)c1ccccc1)N1CC[C@@H](NC(=O)c2ccccc2O)[C@H](O)C1` (relative stereo) [Compound 77, trans-3-hydroxy-4-[(2-hydroxybenzoyl)-amino]-N,N,γ-trimethyl-α,α-diphenyl-1-piperidinebutanamide], the ED50 in assay [1] is not below 40 mg/kg; in assay [2], 0.16 mg/kg.

For the compound `CC(CC(C(=O)N(C)C)(c1ccccc1)c1ccccc1)N1CCC(NC(=O)c2cccc(C(F)(F)F)c2)C(O)C1` (single isomer, unassigned; (+)) [Compound 57, (+)-(3B,trans)-3-hydroxy-N,N,γ-trimethyl-α,α-diphenyl-4-[[3-(trifluoromethyl)benzoyl]amino]-1-piperidinebutanamide], in assay [1], the ED50 is more than 160 mg/kg. Moreover, the “Ricinus Oil Test ED50” value in assay [2] (oral, 60 min) is 0.31 mg/kg body weight.

As a reminder, the ED50 is the midpoint of the dose-response relation. Low values mean greater potency, high ones weaker potency.
